Where a name gives a salt, the structure may show the parent alone.
Legend:
Hsp70 [1] = conditions: cited from earlier work
Hsp70 [2] = conditions: cited from earlier work; remark: listed apart in the source
[3] = basic or acidic aqueous solution; cited from earlier work
HSP70 [4] = target: T1, HSP70 (Mus musculus, UniProt Q61696); experiment: in vivo analysis of FAM-labeled bifunctional molecule after hind limb heating; set-up: species or system mice; conditions: 20 nmol i.v., about 4 hours post-injection (8 hrs post hyperthermia), dermis dissected
T1 construct: imaging an inducible target using an endogenous protein involved in stress response; from tissue; host or cells: heated right hind limb of live mice
Method: As a control, 6-carboxyfluorescein (6-FAM) was administered at the same dose (20 nmol) in the same manner. Due to the high intrinsic autofluorescence of the dermis, experimental mice were sacrificed, the dermis dissected, and imaged on a small animal dedicated optical system (Xenogen/Caliper IVIS-200) using the appropriate excitation/emission filter set.

T1 sequence (Q61696 whole entry): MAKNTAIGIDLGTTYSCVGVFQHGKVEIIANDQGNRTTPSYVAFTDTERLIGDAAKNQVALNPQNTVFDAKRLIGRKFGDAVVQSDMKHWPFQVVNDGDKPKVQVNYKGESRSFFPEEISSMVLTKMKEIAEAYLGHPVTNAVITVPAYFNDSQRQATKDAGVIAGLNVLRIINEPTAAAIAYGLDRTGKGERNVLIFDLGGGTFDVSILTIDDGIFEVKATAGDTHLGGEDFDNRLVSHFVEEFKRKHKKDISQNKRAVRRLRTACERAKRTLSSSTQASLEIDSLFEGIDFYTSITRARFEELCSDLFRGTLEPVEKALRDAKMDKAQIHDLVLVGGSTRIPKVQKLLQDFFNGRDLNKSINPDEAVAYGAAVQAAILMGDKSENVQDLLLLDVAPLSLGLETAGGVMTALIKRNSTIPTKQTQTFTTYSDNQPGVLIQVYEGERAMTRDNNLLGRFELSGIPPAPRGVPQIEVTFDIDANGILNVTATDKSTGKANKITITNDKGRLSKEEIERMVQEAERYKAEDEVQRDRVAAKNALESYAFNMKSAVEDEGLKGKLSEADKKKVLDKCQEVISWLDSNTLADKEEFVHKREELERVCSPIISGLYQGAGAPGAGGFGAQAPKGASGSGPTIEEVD

| SMILES | Kd (Hsp70 [1]) [µM] | effect on Hsp70 steady state ATPase activity (Hsp70 [2]) | hydrolytic stability [3] | fluorescence in heated limb tissue (HSP70 [4]) |
| --- | --- | --- | --- | --- |
| N=C(N)NCCCCCCC(=O)N[C@@H](O)C(=O)NCCCCNCCCN (racemic) [Compound 15-DSG, (±)7-[(aminoiminomethyl)amino]-N-[2-[[4-[(3-aminopropyl)amino]butyl]amino]-1-hydroxy-2-oxoethyl]heptanamide trihydrochloride] | 4 | stimulates | hydrolyses gradually |  |
| O=C(O)c1ccc2c(c1)C1(OC2=O)c2ccc(O)cc2Oc2cc(O)ccc21 [Compound 6-FAM, 6-carboxyfluorescein] |  |  |  | minimal level of fluorescence |

— patent US20110270151A1, “IMAGE-GUIDED ENERGY DEPOSITION FOR TARGETED DRUG DELIVERY” (The Methodist Hospital Research Institute, priority 2008, published 2011)
